Data from article PMC12154458, “High-Throughput Screens of Repurposing Hub and DOS Chemical Libraries Reveal Compounds with Novel and Potent Inhibitory Activity Against the Essential Non-Neuronal Acetylcholinesterase of Schistosoma mansoni (SmTAChE)” (International Journal of Molecular Sciences, 2025).
Entries after “also recorded” stand apart in the source; their conditions may differ. Read-outs that look alike come from different tables or passages of the source.

How the values were obtained:
[1] = molecular target: recombinant human acetylcholinesterase, rHsAChE (Homo sapiens, UniProt P22303); assay: biochemical
[2] = molecular target: T1, rSmTAChE (Schistosoma mansoni, UniProt A0A3Q0KMM5); format: biochemical; details: for IC50: read-out: IC50 (µM) rSmTAChE;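 as to Inhibition (%) (Average): mostly 20 µM final but a few compounds at 5 or 10 µM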;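 as to Inhibition (%) Replicate A: mostly 20 µM final but a few compounds at 5 or 10 µM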;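 as to Inhibition (%) Replicate B: mostly 20 µM final but a few compounds at 5 or 10 µM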
[3] = system: S. mansoni adult male and female worms; details: survival over 3 days; read-out: IC50 against adults; cited from earlier work
[4] = system: S. mansoni worms in vivo; details: one time 200 mg/kg by oral gavage, four mice, 16–18 days post-drug administration; cited from earlier work
[5] = molecular target: T1, rSmTAChE; assay: biochemical
[6] = system: newly transformed S. mansoni schistosomula; details: survival over 3 days; read-out: IC50 against schistosomula; cited from earlier work
[7] = system: human red blood cell AChE; details: cited from earlier work
[8] = read-out: rSmTAChE HTS Inhibition (Ave, %)
[9] = read-out: HTS/rSmTAChE Inhibition (Ave, %)
[10] = Table 3, read-out: IC50 (µM) rHsAChE
[11] = dose response analysis of Drug Repurposing Hub hits against rHsAChE

T1 sequence (A0A3Q0KMM5 27-661 limits assumed): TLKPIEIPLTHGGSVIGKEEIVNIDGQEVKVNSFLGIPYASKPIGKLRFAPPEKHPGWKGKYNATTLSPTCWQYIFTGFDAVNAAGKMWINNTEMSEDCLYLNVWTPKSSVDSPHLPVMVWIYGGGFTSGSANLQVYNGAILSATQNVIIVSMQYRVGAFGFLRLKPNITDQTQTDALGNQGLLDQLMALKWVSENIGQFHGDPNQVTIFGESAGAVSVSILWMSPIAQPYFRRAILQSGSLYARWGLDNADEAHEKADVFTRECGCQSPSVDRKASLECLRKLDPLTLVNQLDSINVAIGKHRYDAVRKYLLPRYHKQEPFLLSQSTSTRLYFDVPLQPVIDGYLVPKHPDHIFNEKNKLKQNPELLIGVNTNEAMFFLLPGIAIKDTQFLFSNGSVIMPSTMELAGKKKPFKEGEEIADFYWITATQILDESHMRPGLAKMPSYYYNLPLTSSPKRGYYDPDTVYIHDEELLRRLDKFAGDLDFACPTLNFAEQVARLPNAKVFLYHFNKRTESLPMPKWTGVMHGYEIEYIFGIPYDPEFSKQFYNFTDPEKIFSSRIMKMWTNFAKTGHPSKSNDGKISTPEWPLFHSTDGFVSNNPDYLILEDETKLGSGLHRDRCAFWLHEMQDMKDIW
Chain of recombinant human acetylcholinesterase, rHsAChE (P22303 32-614): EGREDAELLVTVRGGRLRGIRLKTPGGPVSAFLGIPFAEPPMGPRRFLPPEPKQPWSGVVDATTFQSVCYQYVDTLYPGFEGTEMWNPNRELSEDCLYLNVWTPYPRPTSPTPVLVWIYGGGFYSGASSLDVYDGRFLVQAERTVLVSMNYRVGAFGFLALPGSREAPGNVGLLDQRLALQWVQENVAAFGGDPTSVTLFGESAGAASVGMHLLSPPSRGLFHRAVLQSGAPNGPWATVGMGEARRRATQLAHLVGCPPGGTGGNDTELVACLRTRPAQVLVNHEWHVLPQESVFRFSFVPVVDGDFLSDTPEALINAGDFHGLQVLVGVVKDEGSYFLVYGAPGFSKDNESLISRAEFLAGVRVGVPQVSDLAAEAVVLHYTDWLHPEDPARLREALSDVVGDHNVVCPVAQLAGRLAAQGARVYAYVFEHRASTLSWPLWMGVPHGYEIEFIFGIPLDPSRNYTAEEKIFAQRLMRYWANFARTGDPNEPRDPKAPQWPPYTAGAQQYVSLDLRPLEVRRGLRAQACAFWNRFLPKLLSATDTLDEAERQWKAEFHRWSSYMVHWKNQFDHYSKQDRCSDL

Row | Compound | Data Mode (curve class), rHsAChE [1] | Data Mode (curve class), rSmTAChE [2] | SI (Hs/Sm) [2] | inhibition at 20 µM [5, 8] | inhibition at 20 µM [5, 9] | SI (Sm/Hs) [1] | Data Mode (curve class), rHsAChE [1, 11] | other results
1 | Nc1nc(NCC2CCC(CNS(=O)(=O)c3cccc4ccccc34)CC2)nc2ccccc12 (stereo not shown) [CGP-71683, reference compound] | decreasing (weakly active) | decreasing | 8.82 | – | – | – | – | IC50 ([1]; read-out: IC50 (µM) rHsAChE): > 19.5 µM; fold greater potency/selectivity for SmTAChE vs. HsAChE (Selectivity Index) [2]: about 10 fold; IC50 [2]: 2.21 µM; IC50 [3]: ~2 µM; worm burden compared to the controls [4]: no differences in worm burden; Inhibition (%) (Average) [5]: 61.37%; Inhibition (%) Replicate A [5]: 61.71%; Inhibition (%) Replicate B [5]: 61.03%; HTS/rSmTAChE Inhibition (Ave, %) ([5]; 5 µM): 61.37%; IC50 [6]: ~1 µM
2 | O=C(NC(=O)c1c(F)cccc1F)Nc1cc(Cl)c(OC(F)(F)C(F)C(F)(F)F)cc1Cl (stereo not shown) [Lufenuron, reference compound] | decreasing | decreasing (weakly active) | – | 92.6% | – | – | – | IC50 ([1]; IC50 (µM) rHsAChE): 12 µM; IC50 ([1]; qAC50 (IC50), rHsAChE): 12 µM
3 | COc1ccc2cc(-c3cc(-c4cc(Cl)cc(Cl)c4)nn3[C@@H](C)c3ccc(C(=O)NCCC(=O)O)cc3)ccc2c1 [MK-0893, reference compound] | – | decreasing | – | – | 88.7% | – | – | IC50 (µM) rHsAChE ([1]; Table 1, Inactive = inactive at the maximum tested concentration (40 µM)): Inactive *; inhibition of rHsAChE, result in words ([1]; dose–response, up to 40 µM): no inhibition detected
4 | O=C(O)Cn1nnc(-c2cc(N3CCC(Oc4cc(F)ccc4Br)CC3)no2)n1 [MK-8245, reference compound] | – | decreasing | – | 71.5% | – | 4.71 | decreasing | IC50 [1, 10]: 7.93 µM
5 | C[C@H](Cc1ccc(O)c(O)c1)[C@@H](C)Cc1ccc(O)c(O)c1 [Masoprocol, reference compound] | – | decreasing | 2.32 | – | 76.4% | – | decreasing (weakly active) | –
6 | COc1ccc(-c2ccc3ncc4c(c3c2)n(-c2ccc(N3CCNCC3)c(C(F)(F)F)c2)c(=O)n4C)cn1 [NVP-BGT226, reference compound] | – | decreasing (weakly active) | – | – | – | 2.81 | decreasing (weakly active) | IC50 [1, 10]: > 13.5 µM; inhibition at 10 µM [5, 8]: 84.3%
7 | CN(C)C(=O)Oc1cccc([N+](C)(C)C)c1 [Neostigmine bromide, reference compound] | decreasing | decreasing | – | 88.1% | – | – | – | –
8 | CCCCCCCC/C=C\CCCCCCCC(=O)NCCc1ccc(O)c(O)c1 [OLDA, reference compound] | decreasing (weakly active) | decreasing | – | – | – | 2.67 | – | IC50 ([1]; read-out: IC50 (µM) rHsAChE): > 13.5 µM; IC50 [2]: 36.1 µM; Inhibition (%) Replicate A [5]: 93.41%; Inhibition (%) Replicate B [5]: 95.51%; rSmTAChE HTS Inhibition (Ave, %) ([5]; 20 µM): 94.46%
9 | O=C(Nc1cccc2c(=O)cc(-c3nnn[nH]3)oc12)c1ccc(OCCCCc2ccccc2)cc1 [Pranlukast, reference compound] | – | decreasing | – | 66.3% | – | 2.18 | decreasing | IC50 ([1]; IC50 (µM) rHsAChE): 12.6 µM
10 | Cc1cn2nc([C@@H]3CCCCN3C(=O)c3cc(Cl)ccc3NS(C)(=O)=O)cc2nc1N1CC[C@H](N)C1 [Presatovir, reference compound] | – | decreasing | – | – | 66.9% | – | decreasing (weakly active) | –
11 | COc1cc(NC(C)CCCN)c2ncccc2c1 (stereo not shown) [Primaquine phosphate, reference compound] | decreasing (weakly active) | decreasing | 2.21 | – | 73.7% | – | – | IC33 human red blood cell AChE [7]: 38 µM; IC67 human red blood cell AChE [7]: 247 µM
12 | CC(C)(Sc1cc(C(C)(C)C)c(O)c(C(C)(C)C)c1)Sc1cc(C(C)(C)C)c(O)c(C(C)(C)C)c1 [Probucol, reference compound] | – | decreasing (weakly active) | – | 93.7% | – | 5.36 | decreasing | IC50 ([1]; IC50 (µM) rHsAChE): 7.09 µM
13 | CN(C)C(=O)Oc1ccc[n+](C)c1 [Pyridostigmine bromide, reference compound] | decreasing (super-active) | decreasing | – | 92.4% | – | – | – | –
14 | CCCCC(CC)CCC(CC(C)C)OS(=O)(=O)O (stereo not shown) [Sodium-tetradecyl-sulfate, reference compound] | – | decreasing | – | 74.7% | – | 2.01 | decreasing | IC50 [1, 10]: 5.66 µM
15 | Cc1cc(OCCCS(C)(=O)=O)cc(C)c1-c1cccc(COc2ccc3c(c2)OC[C@H]3CC(=O)O)c1 [TAK-875, reference compound] | – | decreasing | 2.25 | – | 65% | – | decreasing (weakly active) | –
16 | Cc1cnc(Nc2ccc(N3CCN(C)CC3)cc2)nc1Nc1cccc(S(=O)(=O)NC(C)(C)C)c1 [TG-101209, reference compound] | decreasing | decreasing | 2.51 | – | – | – | – | IC50 ([1]; read-out: IC50 (µM) rHsAChE): 15.4 µM; IC50 ([1]; read-out: qAC50 (IC50), rHsAChE): 15.4 µM; IC50 [2]: 6.13 µM; Inhibition (%) (Average) [5]: 70.99%; Inhibition (%) Replicate A [5]: 68.94%; Inhibition (%) Replicate B [5]: 73.04%; HTS/rSmTAChE Inhibition (Ave, %) ([5]; 20 µM): 71.00%
17 | CCCCCCCCCCCCCCCC[N+](C)(C)CCN(Cc1ccc(OC)cc1)c1ncccn1 [Thonzonium bromide, reference compound] | – | decreasing | – | 67% | – | 2.92 | decreasing | IC50 ([1]; IC50 (µM) rHsAChE): 0.38 µM
18 | Oc1cc(Cl)ccc1Oc1ccc(Cl)cc1Cl [Triclosan, reference compound] | decreasing (weakly active) | decreasing | 5.78 | – | 68% | – | – | –
19 | CCN(c1ccccc1)c1cc(=NC)n(C)c(C)n1 [ZD-7288, 4-ethylphenylamino-1,2-dimethyl-6-methylaminopyrimidinium chloride, reference compound] | – | decreasing | 46.87 | – | – | – | decreasing (weakly active) | IC50 ([1]; Table 1, Inactive = inactive at the maximum tested concentration (40 µM), read-out: IC50 (µM) rHsAChE): > 19.5 µM; IC50 ([1]; read-out: IC50 for rHsAChE): ~20 µM; fold greater potency/selectivity for SmTAChE vs. HsAChE (Selectivity Index) [2]: ~50 fold; inhibition at 10 µM [5, 9]: 75%
20 | SR-33805 [reference compound] | – | decreasing | – | – | – | – | – | IC50 (µM) rHsAChE [1]: Inactive; inhibition of rHsAChE, result in words [1]: no inhibition detected; also recorded: no activity detected; IC50 [2]: 6.82 µM; Inhibition (%) (Average) [5]: 74.26%; Inhibition (%) Replicate A [5]: 73.90%; Inhibition (%) Replicate B [5]: 74.62%; HTS/rSmTAChE Inhibition (Ave, %) ([5]; 5 µM): 74.26%
